From patent publication US20230321017A1, “ACIDIC CANNABINOIDS AND USES THEREOF FOR ENHANCING FEMALE SEXUAL FUNCTION OR TREATING FEMALE SEXUAL DISORDERS” (Vella Bioscience, Inc., priority 2022, published 2023)
“Also recorded” adds a separate entry of the source.

How the values were obtained:
[1] = test system: rat vaginal smooth muscle; test: Relaxation of precontracted rat vaginal smooth muscle (summary statement); conditions: dose-dependent manner; tissue region not specified
From the text: (§1) The following in vitro methodology was utilized to examine the concentration-dependent response of rat vaginal tissue, both proximal and distal, to CBDA and CBD following contraction by electrical field stimulation (similar to efferent neurostimulation in vivo).
(§2) Intact female Sprague-Dawley rats were anesthetized and vagina harvested. A maximum of eight vaginal strips (4 proximal and 4 distal) were obtained from each rat in circular direction and mounted in organ chambers filled with an oxygenated physiological salt solution.
(§3) Strips were excised from the tissue samples and connected to force transducers for isometric tension recording. Organ baths were filled with Krebs buffer maintained at 37° C. and bubbled with 95% O2 and 5% CO2, pH 7.4.
After the equilibration period, the strips were primed first by the addition to the organ bath of KCI (100 mM, 10 min) and then after a washing step, by stimulation to EFS (electrical parameters: 20 Hz, 3 ms, 10 s, 300 mA). After this priming period, the strips were washed and a baseline frequency response curve (FRC) was obtained (3 ms, 10 s, 300 mA, frequency at 1, 2, 4, 8, 16, 32, and 48 Hz, every 2 minutes). Then, 6 strips (3 proximal and 3 distal) were incubated with vehicle for 10 minutes before applying a second FRC. The remaining 2 strips (one proximal and one distal) served as a time-controls. […]

[2] = test system: rat proximal vaginal smooth muscle tissue; test: In vitro isometric tension, isolated organ bath: relaxation of EFS-induced contractions of proximal vagina strips; conditions: for pharmacological relaxant effect on rat proximal vaginal smooth muscle tissue (dose dependence): figure legend, 1, 10 and 100 µg/mL; for relaxation of EFS-induced contractions of proximal vagina strips compared to the vehicle control: 10 min incubation, two-way ANOVA
From the text: as §1, §2, §3
(§4) After the equilibration period, the strips were primed first by the addition to the organ bath of KCI (100 mM, 10 min) and then after a washing step, by stimulation to EFS (electrical parameters: 20 Hz, 3 ms, 10 s, 300 mA). After this priming period, the strips were washed and a baseline frequency response curve (FRC) was obtained (3 ms, 10 s, 300 mA, frequency at 1, 2, 4, 8, 16, 32, and 48 Hz, every 2 minutes). Then, 6 strips (3 proximal and 3 distal) were incubated with vehicle for 10 minutes before applying a second FRC. The remaining 2 strips (one proximal and one distal) served as a time-controls. After a washing step, a third FRC was applied after the incubation of the test compound at 1 µg/mL for a period of 10 min. This was repeated with the concentration of 10 µg/mL, and 100 µg/mL.
(§5) The experiments were performed following the general procedures described in Examples 1 and 2. The data are mean ± SEM of N experiments using vaginal strips from N different rats. p = ns, * p < 0.05, ** p < 0.01, *** p < 0.001, **** p < 0.0001, two-way ANOVA.
(§6) The experiments were performed following the general procedures described in Examples 1 and 2. The data are mean ± SEM of N experiments using vaginal strips from N different rats; p = ns, * p < 0.05, ** p < 0.01, *** p < 0.001, **** p < 0.0001, two-way ANOVA.
(§7) The comparison plots of the pharmacological relaxant effects of CBD and CBDA on rat vaginal smooth muscle tissue are shown in FIGS. 3, 4, and 5. Also, shown are the results of the evaluation of the differences in effects exerted by CBD and CBDA for statistical significance. The data are mean ± SEM of N experiments using vaginal strips from N different rats; p = ns, * p < 0.05, ** p < 0.01, *** p < 0.001, **** p < 0.0001, two-way ANOVA.

[3] = test system: rat distal vaginal smooth muscle tissue; test: In vitro isometric tension, isolated organ bath: relaxation of EFS-induced contractions of distal vagina strips; conditions: for relaxation of EFS-induced contractions of distal vagina strips compared to the vehicle control: 10 min incubation, two-way ANOVA; for pharmacological relaxant effect on rat distal vaginal smooth muscle tissue (dose dependence): figure legend, 1, 10 and 100 µg/mL
From the text: as §1, §2, §3, §4, §5, §6, §7

[4] = pKa estimate by comparison to olivetolic acid; assay type: physicochemical; conditions: estimated by comparison to olivetolic acid; not reported
[5] = background statement; cited from earlier work
[6] = test system: cyclooxygenase isoforms; conditions: background statement, selectivity controversial; cited from earlier work
[7] = test system: vaginal smooth muscle; conditions: earlier study WO2021091908A1; cited from earlier work

Structure (SMILES)	effectiveness at relaxing a precontracted rat vaginal smooth muscle, relative to CBD [1]	pharmacological relaxant effect of CBDA compared with CBD, proximal vaginal smooth muscle ([2]; 1 µg/mL, FIG. 3A)	pharmacological relaxant effect of CBDA compared with CBD, proximal vaginal smooth muscle ([2]; 10 µg/mL, FIG. 4A)	pharmacological relaxant effect of CBDA compared with CBD, proximal vaginal smooth muscle ([2]; 100 µg/mL, FIG. 5A)	pharmacological relaxant effect on rat proximal vaginal smooth muscle tissue (dose dependence) [2]	pharmacological relaxant effect of CBDA compared with CBD, distal vaginal smooth muscle ([3]; 1 µg/mL, FIG. 3B)	relaxation of EFS-induced contractions of distal vagina strips compared to the vehicle control ([3]; 10 µg/mL)	pharmacological relaxant effect of CBDA compared with CBD, distal vaginal smooth muscle ([3]; 10 µg/mL, FIG. 4B)	relaxation of EFS-induced contractions of distal vagina strips compared to the vehicle control ([3]; 100 µg/mL)	pharmacological relaxant effect of CBDA compared with CBD, distal vaginal smooth muscle ([3]; 100 µg/mL, FIG. 5B)	pharmacological relaxant effect on rat distal vaginal smooth muscle tissue (dose dependence) [3]	pKa [4]	permeability relative to CBD [5]	activity against cyclooxygenase (COX-1/COX-2) [6]	relaxation of EFS-induced contractions of proximal vagina strips compared to the vehicle control ([2]; 10 µg/mL)	relaxation of EFS-induced contractions of proximal vagina strips compared to the vehicle control ([2]; 100 µg/mL)	relaxation of EFS-induced contractions of distal vagina strips compared to the vehicle control ([3]; 1 µg/mL)	relaxation of vaginal smooth muscle [7]
C=C(C)[C@@H]1CCC(C)=C[C@H]1c1c(O)cc(CCCCC)c(C(=O)O)c1O [CBDA, (1′R,2′R)-2,6-dihydroxy-5′-methyl-4-pentyl-2′-(prop-1-en-2-yl)-1′,2′,3′,4′-tetrahydro[1,1′-biphenyl]-3-carboxylic acid]	significantly more effective than CBD	stronger	stronger	stronger	statistically significant, dose-dependent pharmacological relaxant effect	no statistically significant difference	statistically-significant relaxation	stronger	statistically-significant relaxation	stronger	statistically significant, dose-dependent pharmacological relaxant effect	~3.4	substantially higher	inhibitor of cyclooxygenase isoforms	–	–	–	–
C=C(C)[C@@H]1CCC(C)=C[C@H]1c1c(O)cc(CCCCC)cc1O [CBD, (-)-trans-cannabidiol, reference compound]	–	–	–	–	statistically significant, dose-dependent pharmacological relaxant effect	–	statistically-significant relaxation; also recorded: statistically significant relaxation	–	statistically-significant relaxation; also recorded: statistically significant relaxation	–	statistically significant, dose-dependent pharmacological relaxant effect	–	–	much weaker or no activity	statistically-significant relaxation	statistically-significant relaxation	statistically-significant relaxation; also recorded: statistically significant relaxation	statistically-significant relaxation
